Columns and labels:
GSK3A = GSK3A (Homo sapiens, UniProt P49840); test: in vitro HotSpot kinase assay (Reaction Biology), 10-dose IC50 in triplicate; format: biochemical
GSK3B = GSK3B (Homo sapiens, UniProt P49841); test: as above; format: biochemical
Sequence of GSK3B (P49841 whole entry): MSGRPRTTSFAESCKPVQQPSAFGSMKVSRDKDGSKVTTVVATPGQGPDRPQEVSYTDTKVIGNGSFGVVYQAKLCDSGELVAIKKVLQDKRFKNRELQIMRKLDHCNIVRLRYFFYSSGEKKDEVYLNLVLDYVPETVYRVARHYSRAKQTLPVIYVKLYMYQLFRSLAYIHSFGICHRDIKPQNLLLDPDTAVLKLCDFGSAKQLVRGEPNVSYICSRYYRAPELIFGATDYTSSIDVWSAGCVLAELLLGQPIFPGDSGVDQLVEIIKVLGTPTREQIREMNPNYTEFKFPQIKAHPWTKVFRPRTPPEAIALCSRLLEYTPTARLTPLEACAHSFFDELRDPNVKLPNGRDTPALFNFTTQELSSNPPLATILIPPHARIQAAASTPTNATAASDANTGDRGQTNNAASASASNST

Sequence of GSK3A (P49840 2-483): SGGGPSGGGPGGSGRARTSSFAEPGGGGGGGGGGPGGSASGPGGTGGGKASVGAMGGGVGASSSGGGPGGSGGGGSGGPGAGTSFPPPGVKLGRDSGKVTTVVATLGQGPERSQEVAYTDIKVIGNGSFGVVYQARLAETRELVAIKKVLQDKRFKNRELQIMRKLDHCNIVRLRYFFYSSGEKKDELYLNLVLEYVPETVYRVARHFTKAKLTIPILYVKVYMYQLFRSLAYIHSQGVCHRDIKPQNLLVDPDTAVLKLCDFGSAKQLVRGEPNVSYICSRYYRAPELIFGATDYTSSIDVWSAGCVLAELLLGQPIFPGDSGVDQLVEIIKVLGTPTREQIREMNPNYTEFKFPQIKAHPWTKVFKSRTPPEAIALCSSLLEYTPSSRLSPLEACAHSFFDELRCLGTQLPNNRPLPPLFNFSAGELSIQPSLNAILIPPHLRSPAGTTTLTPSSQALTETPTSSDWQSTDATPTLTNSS

For `CCn1cc(C(=O)O)c(=O)c2c(N)c(F)c(NC3CCCCC3)cc21` [AS1842856], the IC50 (GSK3A) was 2.8 nM and the IC50 (GSK3B) was 2.8 nM.

From paper PMC12594101, “Biphasic control of the B cell transcriptome by mTORC1 and GSK3” (Cell reports, 2025)
